Columns and labels:
Assay in all cases: Growth inhibition assay for Breast Cancer (BC) Cell lines
Type in all cases: cell-based
KPL-1 = details: KPL-1, ER+/PR+; 96 hours, Cell Titer-Glo
Description: (§1) Growth inhibition assay for Breast Cancer (BC) Cell lines. Compounds 1 (a TOR kinase inhibitor set forth herein having molecular formula C16H16N8O) and 2 (a TOR kinase inhibitor set forth herein having molecular formula C17H18N8O2) were dissolved in dimethyl sulfoxide (DMSO) to prepare a 10 mM stock solution. A serial titration was performed to produce a working concentration range of 1.5 µM to 10 mM. Aliquots to produce final concentrations of 1.5 nM to 10 µM were spotted via an acoustic dispenser (EDC ATS-100) into an empty 384-well plate. Compounds 1 and 2 were spotted in a 10-point serial dilution fashion (3-fold dilution) in duplicate within the plate. The DMSO concentration was kept constant for a final assay concentration of 0.1% DMSO. Plates were replicated for use with different cell lines and testing periods. After compound plate replication, all plates were sealed (Agilent ThermoLoc) and stored at -20° C. for up to 1 month. […] When ready for testing, plates were removed from the freezer, thawed, and unsealed just prior to the addition of the test cells. Prior to testing, cells were grown and expanded in culture flasks to provide sufficient amounts of starting material. Cells were then diluted to the appropriate densities and added directly to the compound-spotted 384-well plates. Cells were allowed to grow for 96 hours at 37° C./5% CO2. At the time when compound was added (t0), initial cell number was assessed via a viability assay (Cell Titer-Glo) by quantifying the level of luminescence generated by ATP present in viable cells. After 96 hours, cell viability of compound-treated cells was assessed via Cell Titer-Glo and luminescence measurement. Cell lines were assayed for growth inhibition by Compounds 1 and 2 in at least 3 independent tests. A control cell line (the lung tumor cell line, A549) was included in each of the assays. The compound response against this control cell line was monitored closely to enable comparison of the data generated through the assay period. All data were normalized and presented as a percentage of the DMSO-treated cells. Results were then expressed as a GI50 value. The GI50 value corrects for the cell count at time zero.

HCC1500 = details: HCC1500, ER+/PR+; 96 hours, Cell Titer-Glo
Description: as §1

MDA-MB-453 = details: Homo sapiens; MDA-MB-453, Her2+; 96 hours, Cell Titer-Glo
Description: as §1

ZR-75-30 = details: Homo sapiens; ZR-75-30, Her2+; 96 hours, Cell Titer-Glo
Description: as §1

T47D = details: Homo sapiens, ER+/PR+, 96 hours, Cell Titer-Glo
Description: as §1

BT-483 = details: Homo sapiens; BT-483, ER+/PR+; 96 hours, Cell Titer-Glo
Description: as §1

MDA-MB-361 = details: Homo sapiens; MDA-MB-361, Her2+; 96 hours, Cell Titer-Glo
Description: as §1

SK-BR-3 = details: Homo sapiens; SK-BR-3, Her2+; 96 hours, Cell Titer-Glo
Description: as §1

CAMA-1 = details: Homo sapiens; CAMA-1, ER+/PR+; 96 hours, Cell Titer-Glo
Description: as §1

EFM-19 = details: Homo sapiens; EFM-19, ER+/PR+; 96 hours, Cell Titer-Glo
Description: as §1

HCC1428 = details: Homo sapiens; HCC1428, ER+/PR+; 96 hours, Cell Titer-Glo
Description: as §1

EFM-192A = details: Her2+, 96 hours, Cell Titer-Glo
Description: as §1

ZR-75-1 = details: Homo sapiens; ZR-75-1, ER+/PR+; 96 hours, Cell Titer-Glo
Description: as §1

HCC1954 = details: Homo sapiens; HCC1954, Her2+; 96 hours, Cell Titer-Glo
Description: as §1

UACC-812 = details: Homo sapiens; UACC-812, Her2+; 96 hours, Cell Titer-Glo
Description: as §1

MDA-MB-175-VII = details: Homo sapiens, ER+/PR+, 96 hours, Cell Titer-Glo
Description: as §1

AU565 = details: Homo sapiens; AU565, Her2+; 96 hours, Cell Titer-Glo
Description: as §1

HCC1569 = details: Homo sapiens; HCC1569, Her2+; 96 hours, Cell Titer-Glo
Description: as §1

MDA-MB-134-VI = details: Homo sapiens, ER+/PR+, 96 hours, Cell Titer-Glo
Description: as §1

BT-474 = details: Homo sapiens; BT-474, Her2+; 96 hours, Cell Titer-Glo
Description: as §1

HCC202 = details: HCC202, Her2+; 96 hours, Cell Titer-Glo
Description: as §1

MCF7 = details: Homo sapiens; MCF7, ER+/PR+; 96 hours, Cell Titer-Glo
Description: as §1

MDA-MB-415 = details: Homo sapiens; MDA-MB-415, ER+/PR+; 96 hours, Cell Titer-Glo
Description: as §1

SMILES: COCCN1C(=O)CNc2ncc(-c3ccc(-c4nnc[nH]4)nc3C)nc21 [Compound 2, 1-(2-methoxyethyl)-7-(2-methyl-6-(4H-1,2,4-triazol-3-yl)pyridin-3-yl)-3,4-dihydropyrazino[2,3-b]pyrazin-2(1H)-one]
- GI50 (KPL-1): 0.0507 µM
- GI50 (HCC1500): 0.0246 µM
- GI50 (MDA-MB-453): 0.0445 µM
- GI50 (ZR-75-30): 0.0188 µM
- GI50 (T47D): 0.0214 µM
- GI50 (BT-483): 0.0173 µM
- GI50 (MDA-MB-361): 0.0285 µM
- GI50 (SK-BR-3): 0.0668 µM
- GI50 (CAMA-1): 0.0446 µM
- GI50 (EFM-19): 0.0211 µM
- GI50 (HCC1428): 0.0965 µM
- GI50 (EFM-192A): 0.0741 µM
- GI50 (ZR-75-1): 0.0103 µM
- GI50 (HCC1954): 0.0733 µM
- GI50 (UACC-812): 0.0321 µM
- GI50 (MDA-MB-175-VII): 0.017 µM
- GI50 (AU565): 0.0582 µM
- GI50 (HCC1569): 0.12 µM
- GI50 (MDA-MB-134-VI): 0.0695 µM
- GI50 (BT-474): 0.0782 µM
- GI50 (HCC202): 0.0089 µM
- GI50 (MCF7): 0.0834 µM
- GI50 (MDA-MB-415): 0.0534 µM

Reference: patent publication US20230338370A1, “Treatment of Cancer with TOR Kinase Inhibitors” (Signal Pharmaceuticals, LLC, priority 2012, published 2023)
